# Reference: US9241920B2, “Inhibition of c-Myc ubiquitination to prevent cancer initiation and progression” (NEW YORK UNIVERSITY, priority 2011, dated 2016)
# Key:
# [1] = system: human CD34+ cells (CML patients) depleted of Fbw7; assay: Apoptosis (annexin V staining) of Fbw7-depleted human CML CD34+ cells; format: cell-based; settings: human CD34+ cells after depletion of Fbw7; decrease of c-Myc activity
# Experimental: Viable bone marrow mononuclear cells from two treatment-naïve patients in the chronic phase of CML were obtained from AllCells. To examine the role of FBW7 in the maintenance of LICs for human CML, bone marrow mononuclear cells were transfected with 300 nM FBW7 siRNAs (Stealth Select RNAi siRNA, Invitrogen) by electroporation with the use of an Amaxa Nucleofector II device (Lonza) according to the manufacture's instructions. The transfected cells were then stained with antibodies to human CD34 (8G12), CD3 (SK7), CD16 (3G8), CD19 (SJ25C1), CD20 (L27), CD14 (MφP9), and CD56 (NCAM16.2) (BD Biosciences). CD3, CD16, CD19, CD20, CD14, and CD56 were used as lineage markers. CD34^+Lin^− cells were purified by FACS and cocultured with OP-9 cells for 7 days. For assays of apoptosis, cells were collected after 7 days of culture, stained for cell surface markers, further incubated for 15 min with annexin V (BD Biosciences) and then analyzed by flow cytometry.
# [2] = system: human CD34+Lin- cells (CML patients) depleted of Fbw7; assay: Colony forming unit assay of Fbw7-depleted human CML CD34+ cells; format: cell-based; settings: human CD34+ cells after depletion of Fbw7; decrease of c-Myc activity
# Experimental: For the in vitro CFU experiments, mice received 5 intra-peritoneal (IP) injections of poly(I:C) at a dose of 20 ug/g, and LSK cells were purified 10 days post poly(I:C). LSK cells were purified and infected with Bcr-Abl-NGFR or Bcr-Abl-GFP retrovirus as described above. Bcr-Abl^+ lineage negative cells were sorted 72 hours after the first infection and 1000 cells were seeded into cytokine-supplemented methylcellulose medium (MethoCult 3434, Stem Cell Technologies). Colonies were counted 7 days after they were seeded and 4000 cells were re-plated and colonies were counted after another 7 days (14 days total). For human CFU assay, cells were collected after 7 days of culture, and 1×10^3 CD34^+Lin^− cells were transferred to Methocult medium (MethoCult GF H4435, StemCell Technologies). The number of colonies was counted 1 week after plating.
# Viable bone marrow mononuclear cells from two treatment-naïve patients in the chronic phase of CML were obtained from AllCells. […] For assays of apoptosis, cells were collected after 7 days of culture, stained for cell surface markers, further incubated for 15 min with annexin V (BD Biosciences) and then analyzed by flow cytometry.
structure (smiles),measurement,setting,value
CCc1ccc(/C=C2/SC(=S)NC2=O)cc1 [10058-F4],apoptosis of Fbw7-depleted cells,[1],rescued cells from apoptosis
same,colony forming ability of Fbw7-depleted cells,[2],rescued
